# Assay results reported in patent publication US9200268B2, “Compounds and methods for purification of serine proteases” (Portola Pharmaceuticals, Inc., priority 2012, dated 2015).
# pIC50: −log10 of the molar value.
# Molecular target: human plasma protein factor Xa (Homo sapiens (Human), UniProt P00742)
# Test: FXa inhibitory activity, IC50 determination (cleavage of paranitroanilide substrate S-2765)
# Assay type: biochemical
# Conditions: factor Xa 1 nM, S2765 100 μM, Tris buffered saline pH 7.4
# Excerpt: This example illustrates methods for evaluating the compounds, along with results obtained for such assays. As mentioned above, the compound may be selected based on its factor Xa inhibitory activity. The in vitro factor Xa activities of the compounds can be determined by various procedures known in the art. […] The IC50 value is the concentration (in nM) of the compound required to provide 50% inhibition of factor Xa proteolytic activity.
# An in vitro assay for detecting and measuring inhibition activity against factor Xa is as follows:
# The substrate S-2765 (Z-D-Arg-Gly-Arg-pNA.HCl) can be obtained from Diapharma (West Chester, Ohio).
# The human plasma protein factor Xa can be purchased from Haematologic Technologies (Essex Junction, Vt.).
# All assays, which are performed in 96-well microtiter plates, measure proteolytic activity of the enzyme (factor Xa) by following cleavage of a paranitroanilide peptide substrate. The assay buffer used for proteolytic assays was Tris buffered saline (20 mM Tris, 150 mM NaCl, 5 mM CaCl2, 0.1% Bovine serum albumin (BSA), 5% dimethly sulfoxide (DMSO) pH 7.4). In a 96-well microtiter plate, inhibitor was serially diluted to give a range of final concentrations from 0.01 nM to 10 μM. Duplicate sets of wells were assayed and control wells without inhibitor were included. Enzyme was added to each well, (factor Xa concentration=1 nM), the plate was shaken for 5 seconds and then incubated for 5 minutes at room temperature. S2765 was added (100 μM final) and the plate was shaken for 5 seconds (final volume in each well was 200 μL). The degree of substrate hydrolysis was measured at 405 nm on a Thermomax plate reader (Molecular Devices, Sunnyvale, Calif.) for 2 minutes. The initial velocities of substrate cleavage (mOD/min), for each range of inhibitor concentrations, were fitted to a four parameter equation using Softmax data analysis software. The parameter C, derived from the resulting curve-fit, corresponded to the concentration for half maximal inhibition (IC50).
# Chain of human plasma protein factor Xa (P00742 41-179): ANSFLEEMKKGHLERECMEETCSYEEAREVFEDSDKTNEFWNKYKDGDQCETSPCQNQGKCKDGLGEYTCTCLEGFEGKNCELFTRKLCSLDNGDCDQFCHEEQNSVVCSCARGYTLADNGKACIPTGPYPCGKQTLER
# Chain of human plasma protein factor Xa (P00742 235-488): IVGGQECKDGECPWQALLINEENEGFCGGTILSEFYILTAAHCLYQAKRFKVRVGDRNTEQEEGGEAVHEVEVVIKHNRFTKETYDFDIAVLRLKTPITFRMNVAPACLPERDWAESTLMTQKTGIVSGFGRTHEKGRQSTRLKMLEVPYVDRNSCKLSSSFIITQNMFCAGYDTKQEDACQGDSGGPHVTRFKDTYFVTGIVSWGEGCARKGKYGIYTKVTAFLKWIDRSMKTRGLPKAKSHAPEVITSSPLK
row,Compound,pIC50
1,CN(C)C(=N)c1ccc(C(=O)Nc2ccc(OCC(=O)NCCCCCCN)cc2C(=O)Nc2ccc(Cl)cn2)cc1,7.62
2,NCCCCCCNc1cc(C(F)(F)F)ccc1C(=O)Nc1ccc(Cl)cc1C(=O)Nc1ccc(Cl)cn1,6.21
3,CS(=O)(=O)c1ccc(C(=O)Nc2ccc(Cl)cc2C(=O)Nc2ccc(Cl)cn2)c(NCCCCCCCN)c1,6.49

# Other lines, results leading:
row,pIC50,Compound
1,6.64,CN(C)C(=N)c1ccc(C(=O)Nc2ccc(OCC(=O)NCCCCCCN)cc2C(=O)Nc2ccccn2)cc1
2,6.80,CS(=O)(=O)c1ccc(C(=O)Nc2ccc(Cl)cc2C(=O)Nc2ccc(Cl)cn2)c(NCCCCCCN)c1
